Holding throughout (assay type): cell-based
One assay has as its target T1, M2 (Homo sapiens, UniProt P08172).
T1 sequence (P08172 1-466): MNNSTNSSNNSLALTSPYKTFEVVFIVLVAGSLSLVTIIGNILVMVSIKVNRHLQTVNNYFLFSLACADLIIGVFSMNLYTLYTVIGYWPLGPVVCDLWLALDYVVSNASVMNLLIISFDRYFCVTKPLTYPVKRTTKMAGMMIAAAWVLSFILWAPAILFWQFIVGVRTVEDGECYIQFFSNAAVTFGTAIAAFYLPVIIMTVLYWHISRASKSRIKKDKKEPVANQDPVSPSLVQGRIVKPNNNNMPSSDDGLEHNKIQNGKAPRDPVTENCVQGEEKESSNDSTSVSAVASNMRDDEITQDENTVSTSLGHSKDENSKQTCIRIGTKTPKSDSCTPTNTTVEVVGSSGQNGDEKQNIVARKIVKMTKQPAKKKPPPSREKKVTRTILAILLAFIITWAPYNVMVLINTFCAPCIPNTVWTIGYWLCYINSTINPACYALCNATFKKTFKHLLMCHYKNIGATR
The experiment in a line: In vitro functional assay of muscarinic acetylcholine receptor activity, M2.

The target in a further assay is T2, human M1 receptor (Homo sapiens, UniProt P11229).
T2 sequence (P11229 1-460): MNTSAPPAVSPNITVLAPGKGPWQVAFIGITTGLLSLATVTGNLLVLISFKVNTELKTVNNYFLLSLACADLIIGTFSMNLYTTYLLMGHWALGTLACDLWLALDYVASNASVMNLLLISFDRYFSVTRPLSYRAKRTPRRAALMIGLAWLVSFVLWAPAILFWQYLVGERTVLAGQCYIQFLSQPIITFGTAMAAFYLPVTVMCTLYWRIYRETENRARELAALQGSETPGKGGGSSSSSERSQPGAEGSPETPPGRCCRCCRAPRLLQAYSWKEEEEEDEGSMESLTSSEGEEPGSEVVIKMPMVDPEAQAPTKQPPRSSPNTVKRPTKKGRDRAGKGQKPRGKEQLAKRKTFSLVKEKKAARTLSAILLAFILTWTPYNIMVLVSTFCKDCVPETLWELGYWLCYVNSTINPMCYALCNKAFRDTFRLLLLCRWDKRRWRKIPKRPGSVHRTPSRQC
The experiment in a line: In vitro functional assay of muscarinic acetylcholine receptor activity (aequorin calcium flux, antagonist mode vs EC80 acetylcholine), M1. The procedure, abridged: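 Antagonism at M1 was measured as a concentration-dependent reduction of the EC80 acetylcholine-evoked aequorin luminescence, from which IC50 was derived. Human M1 CHO-K1 aequorin cells were first loaded with 5 uM coelenterazine h for 4 h and exposed to compound for 30 min at room temperature.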
(Calcium flux is commonly read through the fluorescence of an indicator in the cells.)

A further assay deals with M3 (Homo sapiens, UniProt P20309). The experiment in a line: In vitro functional assay of muscarinic acetylcholine receptor activity, M3. The note with it: antagonist IC50 at M3; read-out: M3 IC50.
Sequence of M3 (P20309 whole entry): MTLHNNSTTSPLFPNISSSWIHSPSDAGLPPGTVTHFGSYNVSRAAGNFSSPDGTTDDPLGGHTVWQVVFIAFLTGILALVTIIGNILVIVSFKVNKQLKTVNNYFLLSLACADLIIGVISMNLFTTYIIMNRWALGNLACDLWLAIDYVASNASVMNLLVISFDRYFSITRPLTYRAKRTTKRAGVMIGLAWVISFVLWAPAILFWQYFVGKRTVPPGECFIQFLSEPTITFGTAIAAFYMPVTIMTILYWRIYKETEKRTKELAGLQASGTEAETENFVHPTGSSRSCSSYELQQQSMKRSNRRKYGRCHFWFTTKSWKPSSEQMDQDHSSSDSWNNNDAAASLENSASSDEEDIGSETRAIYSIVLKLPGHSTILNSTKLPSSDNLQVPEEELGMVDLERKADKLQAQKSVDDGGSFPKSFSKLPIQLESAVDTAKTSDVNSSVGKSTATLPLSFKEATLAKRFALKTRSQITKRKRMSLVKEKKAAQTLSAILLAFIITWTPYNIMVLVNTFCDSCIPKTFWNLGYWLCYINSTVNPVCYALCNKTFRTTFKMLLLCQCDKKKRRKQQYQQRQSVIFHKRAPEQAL
Setting [1] is: antagonist IC50 at M2, read-out: M2 IC50.
Where [2] appears, read: CHO-K1 cells stably expressing human M1 receptor with Aequorin, decrease in EC80 acetylcholine response, read-out: M1 IC50.

In patent publication US11512090B2, “Muscarinic acetylcholine M1 receptor antagonists” (PIPELINE THERAPEUTICS, INC., priority 2018, dated 2022) one finds IC50 data, which are given here for 22 compounds.

Read-outs that look alike come from different tables or passages of the source. Where only a bound is given, the exact number is not on record here.

The term IC50 denotes the midpoint of a concentration-inhibition curve. Regarding `O=C(CCS(=O)(=O)c1cccc2ncsc12)N1C[C@H]2CC[C@@H](C1)N2c1ccncc1F` [Example 95, 3-(benzo[d]thiazol-7-ylsulfonyl)-1-((1R,5S)-8-(3-fluoropyridin-4-yl)-3,8-diazabicyclo[3.2.1]octan-3-yl)propan-1-one], the IC50 was below 100 nM on M2 (setting [1]), below 100 nM on human M1 receptor and 100 to 1000 nM at M3.

On to `Cc1cc(F)cnc1N1CCN(C(=O)CCS(=O)(=O)c2cccc3ncccc23)[C@@H](C)C1` [Example 96, (S)-1-(4-(5-fluoro-3-methylpyridin-2-yl)-2-methylpiperazin-1-yl)-3-(quinolin-5-ylsulfonyl)propan-1-one], for which the IC50 is 1000 to 10000 nM at M2 (setting [1]), 100 to 1000 nM at human M1 receptor (setting [2]) and above 10000 nM at M3.

Consider `Cc1cc(F)cnc1N1CCN(C(=O)CCCS(=O)(=O)c2cccc3ncsc23)[C@@H](C)C1` [Example 97, (S)-4-(benzo[d]thiazol-7-ylsulfonyl)-1-(4-(5-fluoro-3-methylpyridin-2-yl)-2-methylpiperazin-1-yl)butan-1-one], for which the IC50 at M2 (setting [1]), at human M1 receptor (setting [2]) and on M3 was 1000 to 10000 nM in each case.

As to `Cc1nc2cccc(S(=O)(=O)CCCC(=O)N3CCN(c4ncc(F)cc4C)C[C@@H]3C)c2o1` [Example 98, (S)-1-(4-(5-fluoro-3-methylpyridin-2-yl)-2-methylpiperazin-1-yl)-4-((2-methylbenzo[d]oxazol-7-yl)sulfonyl)butan-1-one], the IC50 is 1000 to 10000 nM at M2 (setting [1]), 1000 to 10000 nM on human M1 receptor (setting [2]) and above 10000 nM at M3.

As for `O=C(CCS(=O)(=O)c1cccc2ncsc12)N1CCN(c2ccnc(C(F)(F)F)c2)CC1` [Example 99, 3-(benzo[d]thiazol-7-ylsulfonyl)-1-(4-(2-(trifluoromethyl)pyridin-4-yl)piperazin-1-yl)propan-1-one], the IC50 on M2 (setting [1]) was 1000 to 10000 nM; on human M1 receptor (setting [2]), 1000 to 10000 nM; on M3, above 10000 nM.

Regarding `C[C@H]1CN(c2cnccc2Cl)CCN1C(=O)CCS(=O)(=O)c1cccc2ncsc12` [Example 101, (S)-3-(benzo[d]thiazol-7-ylsulfonyl)-1-(4-(4-chloropyridin-3-yl)-2-methylpiperazin-1-yl)propan-1-one], the half-inhibitory concentration (IC50) was 1000 to 10000 nM at M2 (setting [1]), 100 to 1000 nM at human M1 receptor (setting [2]) and above 10000 nM on M3.

As for `O=C(CCS(=O)(=O)c1cccc2ncsc12)N1CCN(c2ccc(C(F)(F)F)cn2)CC1` [Example 102, 3-(benzo[d]thiazol-7-ylsulfonyl)-1-(4-(5-(trifluoromethyl)pyridin-2-yl)piperazin-1-yl)propan-1-one], the IC50 on M2 (setting [1]) was 1000 to 10000 nM; on human M1 receptor (setting [2]) it was below 100 nM; on M3 it was 1000 to 10000 nM.

As to `Cc1nc2cccc(S(=O)(=O)CCC(=O)N3C[C@H]4CC[C@@H](C3)N4c3ccncc3F)c2o1` [Example 103, 1-((1R,5S)-8-(3-fluoropyridin-4-yl)-3,8-diazabicyclo[3.2.1]octan-3-yl)-3-((2-methylbenzo[d]oxazol-7-yl)sulfonyl)propan-1-one], the values for the IC50 against M2, on human M1 receptor and at M3 were 100 to 1000 nM, below 100 nM and 1000 to 10000 nM, respectively.

For the compound `O=C(CCS(=O)(=O)c1cccc2nccn12)N1C[C@H]2CC[C@@H](C1)N2c1ccncc1F` [Example 104, 1-((1R,5S)-8-(3-fluoropyridin-4-yl)-3,8-diazabicyclo[3.2.1]octan-3-yl)-3-(imidazo[1,2-a]pyridin-5-ylsulfonyl)propan-1-one], the IC50 at M2 (setting [1]) was 1000 to 10000 nM; on human M1 receptor, below 100 nM; at M3, 1000 to 10000 nM.

As for `O=C(CCS(=O)(=O)c1cccc2ncsc12)N1CCN(c2c(Cl)cncc2Cl)CC1` [Example 105, 3-(benzo[d]thiazol-7-ylsulfonyl)-1-(4-(3,5-dichloropyridin-4-yl)piperazin-1-yl)propan-1-one], the IC50 on M2 (setting [1]), on human M1 receptor (setting [2]) and at M3 was 1000 to 10000 nM in each case.

Turning to `O=C(CCS(=O)(=O)c1cccc2nccn12)N1CCN(c2ccc(C(F)(F)F)cn2)CC1` [Example 106, 3-(imidazo[1,2-a]pyridin-5-ylsulfonyl)-1-(4-(5-(trifluoromethyl)pyridin-2-yl)piperazin-1-yl)propan-1-one], the figures for the IC50 at M2 (setting [1]), on human M1 receptor (setting [2]) and at M3 were 1000 to 10000 nM, 1000 to 10000 nM and above 10000 nM, respectively.

As for `Cc1cncc(Cl)c1N1CCN(C(=O)CCS(=O)(=O)c2cccc3ncsc23)CC1` [Example 107, 3-(benzo[d]thiazol-7-ylsulfonyl)-1-(4-(3-chloro-5-methylpyridin-4-yl)piperazin-1-yl)propan-1-one], the half-inhibitory concentration (IC50) on M2 (setting [1]) was above 10000 nM; at human M1 receptor (setting [2]) it was 1000 to 10000 nM; at M3, 1000 to 10000 nM.

Turning to `Cc1cncc(Cl)c1N1CCN(C(=O)CCS(=O)(=O)c2cccc3ncsc23)[C@@H](C)C1` [Example 108, (S)-3-(benzo[d]thiazol-7-ylsulfonyl)-1-(4-(3-chloro-5-methylpyridin-4-yl)-2-methylpiperazin-1-yl)propan-1-one], the values for the IC50 at M2 (setting [1]), on human M1 receptor (setting [2]) and on M3 were above 10000 nM, 100 to 1000 nM and 1000 to 10000 nM, respectively.

`Cc1nc2cccc(S(=O)(=O)CCC(=O)N3CCN(c4ccc(C(F)(F)F)cn4)CC3)c2o1` [Example 109, 3-((2-methylbenzo[d]oxazol-7-yl)sulfonyl)-1-(4-(5-(trifluoromethyl)pyridin-2-yl)piperazin-1-yl)propan-1-one]: the IC50 on M2 (setting [1]) was above 10000 nM; at human M1 receptor (setting [2]), 1000 to 10000 nM; on M3, above 10000 nM.

Regarding `O=C(CCS(=O)(=O)c1cccc2ncsc12)N1CCN(c2ccc(Cl)cn2)CC1` [Example 110, 3-(benzo[d]thiazol-7-ylsulfonyl)-1-(4-(5-chloropyridin-2-yl)piperazin-1-yl)propan-1-one], the IC50 was above 10000 nM on M2 (setting [1]), 100 to 1000 nM at human M1 receptor (setting [2]) and 1000 to 10000 nM at M3.

As to `N#Cc1ccc(N2CCN(C(=O)CCS(=O)(=O)c3cccc4ncsc34)CC2)nc1` [Example 111, 6-(4-(3-(benzo[d]thiazol-7-ylsulfonyl)propanoyl)piperazin-1-yl)nicotinonitrile], the values for the IC50 on M2 (setting [1]), on human M1 receptor (setting [2]) and at M3 were 1000 to 10000 nM, below 100 nM and 1000 to 10000 nM, respectively.

`O=C(CCS(=O)(=O)c1cccc2ncsc12)N1CCN(c2ncc(C(F)(F)F)cn2)CC1` [Example 112, 3-(benzo[d]thiazol-7-ylsulfonyl)-1-(4-(5-(trifluoromethyl)pyrimidin-2-yl)piperazin-1-yl)propan-1-one]: the figures for the IC50 on M2 (setting [1]), on human M1 receptor (setting [2]) and on M3 were above 10000 nM, 1000 to 10000 nM and 1000 to 10000 nM, respectively.

For `C[C@H]1CN(c2ccn3nccc3c2)CCN1C(=O)CCS(=O)(=O)c1cccc2ncsc12` [Example 113, (S)-3-(benzo[d]thiazol-7-ylsulfonyl)-1-(2-methyl-4-(pyrazolo[1,5-a]pyridin-5-yl)piperazin-1-yl)propan-1-one], the IC50 on M2 (setting [1]) is 1000 to 10000 nM; on human M1 receptor (setting [2]), 1000 to 10000 nM; at M3, above 10000 nM.

In the case of `C[C@H]1CN(c2ccc(C#N)nc2)CCN1C(=O)CCS(=O)(=O)c1cccc2ncsc12` [Example 114, (S)-5-(4-(3-(benzo[d]thiazol-7-ylsulfonyl)propanoyl)-3-methylpiperazin-1-yl)picolinonitrile], the figures for the IC50 on M2 (setting [1]), on human M1 receptor (setting [2]) and at M3 were 1000 to 10000 nM, 100 to 1000 nM and 1000 to 10000 nM, respectively.

As for `C[C@H]1CN(c2cnc(C(F)(F)F)nc2)CCN1C(=O)CCS(=O)(=O)c1cccc2ncsc12` [Example 115, (S)-3-(benzo[d]thiazol-7-ylsulfonyl)-1-(2-methyl-4-(2-(trifluoromethyl)pyrimidin-5-yl)piperazin-1-yl)propan-1-one], the IC50 is above 10000 nM on M2 (setting [1]), above 10000 nM at human M1 receptor (setting [2]) and 1000 to 10000 nM on M3.

For the compound `C[C@H]1CN(c2cc(F)c(F)c(F)c2)CCN1C(=O)CCS(=O)(=O)c1cccc2ncsc12` [Example 116, (S)-3-(benzo[d]thiazol-7-ylsulfonyl)-1-(2-methyl-4-(3,4,5-trifluorophenyl)piperazin-1-yl)propan-1-one], the IC50 on M2 (setting [1]), on human M1 receptor (setting [2]) and on M3 was 1000 to 10000 nM throughout.

As to `C[C@H]1CN(c2cc[nH]c(=O)c2)CCN1C(=O)CCS(=O)(=O)c1cccc2ncsc12` [Example 117, (S)-4-(4-(3-(benzo[d]thiazol-7-ylsulfonyl)propanoyl)-3-methylpiperazin-1-yl)pyridin-2(1H)-one], the IC50 on M2 (setting [1]) is above 10000 nM; at human M1 receptor (setting [2]) it was 1000 to 10000 nM; at M3, above 10000 nM.
